In patent US20130005825A1, “Inhibition of the Survival of Lymphoma by Cyclohexenone Compounds from Antrodia Camphorata” (Golden Biotechnology Corporation, priority 2009, published 2013):

Tested on: lymphoma cell line U937
Test: In vitro survival assay (MTT) for anti-lymphoma effects
Assay type: cell-based
Details: Homo sapiens, U-937, U937 cells, 48 hours treatment, read-out: IC50 (half inhibition concentration), survival of lymphoma cells
Procedure: Inhibiting effects of lymphoma cells by cyclohexenone compounds of Antrodia camphorata from example 1 were assessed according to the anticancer-drug screening model of National Cancer Institute (NCI). The compound 4-hydroxy-2,3-dimethoxy-6-methyl-5-(3,7,11-trimethyl-dodeca-2,6,10-trienyl)-cyclohex-2-enone from example 1 was added into the culture media of lymphoma cell line U937 to determine the survival rates. Survival of cell was analyzed using MTT assay. U937 cell line was a human histiocytic lymphoma cell line.
MTT assay is commonly used to analyze cell proliferation, survival rate of viable cells and cytotoxicity. MTT (3[4,5-dimethylthiazol-2-yl]-2,5-diphenyltetrazolium bromide) is a yellow dye which can be converted to water-insoluble purple formazan on the reductive cleavage of its tetrazolium ring by the succinate tetrazolium reductase in mitochondria of cells. The amount of formazan produced is used to detect the number of viable cells and calculate the survival rates.
The U937 cells were cultivated in RPMI 1640 medium supplemented with 10% fetal bovine serum, 10 U/ml of Penicillin and 100 μg/ml of Streptomycin at 37° C., 5% CO2 for 24 hours. […] The absorbances were measured at 570 nm with an ELISA Reader to determine the survival rates.

In the case of `COC1=C(OC)C(O)C(C/C=C(\C)CC/C=C(\C)CCC=C(C)C)C(C)C1=O` (stereo not shown) [formula 2, 4-hydroxy-2,3-dimethoxy-6-methyl-5-(3,7,11-trimethyl-dodeca-2,6,10-trienyl)-cyclohex-2-enone], the IC50 is reported as 9.71 µg/mL.
